Patent US8175371B2, “Method for imaging and differential analysis of cells” (Amnis Corporation, priority 2004, dated 2012)

Test system: Jurkat cells
Test: Annexin V / 7-AAD staining of treated Jurkat cells, evaluated by flow cytometry and fluorescence microscopy
Assay type: cell-based, Human
Settings: Jurkat T cells, Alexa Fluor 488 annexin V and 7-AAD
Experimental: Human acute T leukemic Jurkat cell line was obtained from ATCC (Rockville, Md.; catalog number CRL-1990) and maintained in RPMI 1640 (Gibco, Grand Island, N.Y.) containing 5% fetal bovine serum, 1 mM sodium pyruvate (Mediatech, Herndon, Va.), 100 µM nonessential amino acids, 100 U/ml penicillin, 100 µg/ml streptomycin, and 2 mM L-glutamine (BioWhittaker, Walkersville, Md.) in 5% CO2 atmosphere at 37 degrees C. The density of exponentially growing cells was less than 3×10^5 cells per ml at the time of all treatments. To induce apoptosis, cells were treated for 18 hours with 1 µM camptothecin (CPT, Sigma), a DNA topoisomerase I inhibitor. […]
Control (untreated) cell, CPT treated (apoptotic) cells, and peroxide treated (necrotic) cells were independently counted and washed once in phosphate buffered saline (PBS, Fair Lawn, N.J.). […] Each cell group was washed in annexin V Binding Buffer, fixed in 2% paraformaldehyde (Sigma), and analyzed as either single populations or as a mixture by flow cytometry and immunofluorescence microscopy.
For flow cytometry, cell fluorescence data excited by a 488 nm laser were acquired using the FACSort™ cytometer (BD Immunocytometry Systems, San Jose, Calif.) and analyzed using CellQuest™ (BD Immunocytometry Systems). […]

For `OO` [peroxide, hydrogen peroxide], the “annexin V / 7-AAD staining of treated cells (necrosis induction)” value (0.3% hydrogen peroxide for 1 hour, FIG. 2C) was “stained positively with both annexin V and 7-AAD”.
For `CC[C@@]1(O)C(=O)OCc2c1cc1n(c2=O)Cc2cc3ccccc3nc2-1` [CPT, camptothecin], the “annexin V / 7-AAD staining of treated cells (apoptosis induction)” value (1 µM CPT for 18 hours, FIG. 2B) was “two populations of cells, those that were annexin V^+ (single positive, SP, or early apoptotic cells), and those that were annexin V^+, 7-AAD^+ (double positive, DP, or late apoptotic cells)”.
